Values after ≈ are worked out from the molar mass of the structure shown. Values joined by “and” are separate entries in the source; they are usually repeats but may differ in a detail not shown here. Equal values may be shown once.
Tests used:
[1] = target: CT binding to GM1 receptor (Vibrio cholerae serotype O1, UniProt P01556)
[2] = test system: CT-induced cAMP levels in CHO cell line; format: cell-based
[3] = test system: CT-induced cell elongation in CHO cell line; format: cell-based
[4] = test system: CFCF-induced fluid accumulation in ligated-ileal loops; parameters: species or system Swiss albino mice; settings: mouse, in vivo
[5] = test system: CFCF-induced cAMP levels in ligated-ileal loops; parameters: species or system Swiss albino mice; settings: mouse, in vivo
[6] = test system: CFCF induced histopathological changes in ileal loops; parameters: species or system Swiss albino mice; settings: mouse, in vivo
CHO cell line [7] = settings: Chinese hamster
CHO cell line [8] = assay: cells; settings: Cricetulus griseus, 24 h
in vitro = settings: Chinese hamster
CT binding to GM1 = settings: 50mM; cited from earlier work
[9] = test system: FITC-CTB binding to Vero cells; settings: 10µg/ml; cited from earlier work
CT-induced cAMP = settings: 10µg/mL; cited from earlier work

Sequence of CT binding to GM1 receptor (P01556 22-124 limits assumed): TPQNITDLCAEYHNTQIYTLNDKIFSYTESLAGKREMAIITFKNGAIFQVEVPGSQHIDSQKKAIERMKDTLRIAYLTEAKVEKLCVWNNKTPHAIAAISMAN

SMILES	Binding inhibition of CT to GM1 [1] [%]	Binding inhibition percentage (BI%) [1]	Bound percent (B%) of cAMP [2]	Protection against CT-induced cell elongation [3]	Mean W/L ratio [4]	Mean weight/length (W/L) ratio of ligated-ileal loops [4]	cAMP levels in ligated-ileal tissues [5]	Protection against CFCF induced histopathological changes (inflammation, edema) [6]	NC1 (non-cytotoxic concentration) (CHO cell line [7]) [µg/mL]	NC2 (non-cytotoxic concentration) (CHO cell line [7]) [µg/mL]	viability (CHO cell line [7]) [%]	IC50 (CHO cell line [8]) [µg/mL]	viability (in vitro) [%]	Binding inhibition of CT to GM1 (CT binding to GM1) [%]	Inhibition of binding of FITC-CTB to Vero cells [9] [%]	Decrease in cAMP compared to CT control (CT-induced cAMP) [%]
O=C(/C=C/c1ccc(O)c(O)c1)O[C@@H]1C[C@](O)(C(=O)O)C[C@@H](O)[C@H]1O [Chlorogenic acid]	> 50	92% and 81%	81% and 78%	greater protective activities	0.132 and 0.176	0.132 g/cm and 0.176 g/cm	1.18% and 1.89%	substantial protective activity	100	50	97.2	398 ± 5.4 (≈ 1120 µM)	90.5	–	–	–
O=c1oc2c(O)c(O)cc3c(=O)oc4c(O)c(O)cc1c4c23 [Ellagic acid]	> 50	97%	82% and 81%	greater protective activities	0.091 and 0.094	0.091 g/cm and 0.094 g/cm	0.62% and 1.31%	substantial protective activity	30	15	97.5	116 ± 9.6 (≈ 382 µM)	93.2	–	–	–
O=C(O)c1cc(O)c(O)c(O)c1 [Gallic acid, reference compound]	–	–	80% and 60%	–	0.222 and 0.188	0.188 g/cm	1.79% and 3.39%	indistinct amelioration	25	12.5	97.9	103 ± 1.1 (≈ 604 µM)	93.5	40	23	76
O=C(CCc1ccc(O)cc1)c1c(O)cc(O)cc1O[C@@H]1O[C@H](CO)[C@@H](O)[C@H](O)[C@H]1O [Phloridzin]	> 50	–	71% and 50%	–	–	–	–	–	75	37.5	97.6	298 ± 3.9 (≈ 683 µM)	94.8	–	–	–
C[C@@H]1O[C@@H](Oc2c(-c3ccc(O)c(O)c3)oc3cc(O)cc(O)c3c2=O)[C@H](O)[C@H](O)[C@H]1O [Quercetrin, reference compound]	–	–	66% and 47%	–	–	–	–	–	60	30	96.3	234 ± 3.7 (≈ 521 µM)	91	–	20	59
C[C@@H]1O[C@@H](OC[C@H]2O[C@@H](Oc3c(-c4ccc(O)c(O)c4)oc4cc(O)cc(O)c4c3=O)[C@H](O)[C@@H](O)[C@@H]2O)[C@H](O)[C@H](O)[C@H]1O [Rutin]	–	9% and 2%	53% and 44%	–	–	–	–	–	70	35	97.6	287 ± 6.9 (≈ 471 µM)	92.4	–	–	–
